Test results reported in patent US20240368163A1, “COMPOUNDS AND METHODS FOR MODULATING SPLICING” (REMIX THERAPEUTICS INC., priority 2021, published 2024).
Like-named read-outs stand apart in the source and are kept apart here.

How the values were obtained:
Format in all cases: cell-based, human
[1] = system: MYB; test: HiBiT protein abundance assay, MYB; details: Table 13A, modified K562 cells
Description: (§1) Compounds described herein were used to screen for effects on quantitative protein abundance using a HiBit assay system (Promega). Quantitative protein abundance was determined by measuring the protein levels of HiBit-tagged protein targets expressed in cell culture via luminescence using the Nano-Glo HiBiT Lytic Detection System, which uses a split complementation assay format to reconstitute NanoBiT enzyme to generate a luminescent signal. A protein abundance assay was developed such that endogenous protein targets could be modified with the HiBiT peptide tag and their abundance could be assessed after compound treatment. Briefly, K562 cell lines containing a HiBiT-modification were treated with various compounds described herein (e.g., compounds of Formulas (I), (II), or (III)). After treatment for 24 hours, the protein abundance of a specific target was determined by measuring luminescence.
(§2) Cells were maintained in IMIDM with 10% FBS. Before the assay, cells were diluted with […] growth media (IMIDM+[…] media) and were seeded in a 384-well plate at a density of 10000 cells/well (for each cell line listed in Table 12). Each compound was prepared as a 10-point 3-fold serial dilution in DMSO with the top dose at a final concentration of 10 μM in the well. Unmodified K562 cells were added at the previously specified density with DMSO to serve as an assay baseline and positive control (PC) and DMSO only with the respective modified cell lines was added to the negative control (NC) columns. Final DMSO concentration was kept at or below 0.25%. Treated cell plates were placed in an incubator at 37° C. with 5% CO2 for 24 hours. After 24 hours, 25 μL of Complete HiBit Lytic reagent was added to each well at room temperature (e.g. one plate requiring 10 mL Lytic Buffer, 100 μL LgBiT Protein, 200 μL Lytic Substrate), shaken for 5 minutes at 600 RPM, then left to sit for 10 minutes for signal to stabilize before reading on a Spark Cyto plate reader (Tecan) with a 500 ms measurement time.
(§3) To determine compound effects on protein abundance of each target in Table 12, the percent response for each respective cell line was calculated at each compound concentration as follows:
(§4) For the normalized response at each concentration, a four-parameter logistical regression was fit to the data and the response was interpolated at the 50% value to determine a concentration for protein abundance at 50% (IC50) the untreated control.

[2] = system: HTT; test: Splicing RT-qPCR assay, HTT mRNA canonical junction (CJ) and alternative junction (AJ); details: for AC50: increase in AJ mRNA
Description: (§5) Compounds described herein were used to modulate RNA transcript abundance in cells. The expression of a target mRNA was measured by detecting the formation of an exon-exon junction in the canonical transcript (CJ). A compound mediated exon-inclusion event was detected by observing an increase in formation of a new junction with an alternative exon (AJ). Real-time qPCR assays were used to detect these splicing switches and interrogate the potency of various compounds towards different target genes. A high-throughput real time quantitative PCR (RT-qPCR) assay was developed to measure these two isoforms of the mRNA (CJ and AJ) for exemplary genes, such as HTT, SMN2, and MYB, together with a control housekeeping gene, GAPDH or GUSB or PPIA, used for normalization. Briefly, the A673 or K562 cell line was treated with various compounds described herein (e.g., compounds of Formula (I)). After treatment, the levels of the HTT, MYB, or SMN2 mRNA targets were determined from each sample of cell lysate by cDNA synthesis followed by qPCR.
(§6) The A673 cell line was cultured in DMEM with 10% FBS. Cells were diluted with full growth media and plated in a 96-well plate (15,000 cells in 100 ul media per well). The plate was incubated at 37° C. with 5% CO2 for 24 hours to allow cells to adhere. An 11-point 3-fold serial dilution of the compounds was made in DMSO then diluted in media in an intermediate plate. Compounds were transferred from the intermediate plate to the cell plate with the top dose at a final concentration of 10 uM in the well. Final DMSO concentration was kept at or below 0.25%. The cell plate was returned to the incubator at 37° C. with 5% CO2 for an additional 24 hours.
(§7) The K562 cell line was cultured in IMDM with 10% FBS. For K562, cells were diluted with full growth media and plated in either a 96-well plate (50,000 cells in 50 uL media per well) or a 384-well plate (8,000-40,000 cells in 45 uL media per well). An 11-point 3-fold serial dilution of the compounds were made in DMSO then diluted in media in an intermediate plate. Compound was transferred from the intermediate plate to the cell plate with the top dose at a final concentration of 10 uM in the well. Final DMSO concentration was kept at or below 0.25%. Final volume was 100 uL for 96-well plate and 50 uL for 384-well plate. The cell plate was then placed in an incubator at 37° C. with 5% CO2 for 24 hours.
(§8) The cells were then gently washed with 50 uL-100 uL cold PBS before proceeding to addition of lysis buffer. 30 uL-50 μL of room temperature lysis buffer with DNAse I (and optionally RNAsin) was added to each well. Cells were shaken/mixed thoroughly at room temperature for 5-10 minutes for lysis to take place and then 3 uL-5 μL of room temperature stop solution was added and wells were shaken/mixed again. After 2-5 minutes, the cell lysate plate was transferred to ice for RT-qPCR reaction setup. The lysates could also be frozen at −80° C. for later use.
(§9) In some cases, a direct lysis buffer was used. An appropriate volume of 3× lysis buffer (10 mM Tris, 150 mM NaCl, 1.5%-2.5% Igepal and 0.1-1 U/uL RNAsin, pH 7.4) was directly added to either K562 or A673 cells in media and mixed by pipetting 3 times. The plates were then incubated at room temperature with shaking/rocking for 20-50 minutes to allow for lysis to take place. After this time, the cell lysate plate was transferred to ice to set up for the RT-qPCR reactions. The lysates could also be frozen at −80° C. for later use.
(§10) To set up 10 uL RT-qPCR reactions, cell lysates were transferred to 384-well qPCR plates containing the master mix according to the table below. The plates were sealed, gently vortexed, and spun down before the run. The volumes were adjusted accordingly in some instances where the reaction was carried in 20 μL. The table below summarizes the components of the RT-qPCR reactions:
(§11) The RT-qPCR reaction was performed using a QuantStudio (ThermoFisher) under the following fast cycling conditions. […]

[3] = system: SMN2; test: Splicing RT-qPCR panel, SMN2 canonical junction (CJ) mRNA; details: RT-qPCR panel, canonical junction mRNA, compound concentration having 50% response in CJ decrease, read-out: SMN2 IC50 (decrease in CJ mRNA levels)
Description: as §5, §6, §7, §8, §9, §10, §11

[4] = system: Target C; test: HiBiT protein abundance assay, Target C; details: Homo sapiens, K562, 24 h, Table 13A, modified K562 cells
Description: • Promega Nano-Glo HiBiT Lytic Detection System (cat #N3030) • Coming 384-well TC-treated microplates (cat #3570) • Synthego Engineered Cells Knock-In Clones
as §2, §3, §4

[5] = system: HTT; test: HiBiT protein abundance assay, HTT; details: Table 13A, modified K562 cells
Description: as §1, §2, §3, §4

[6] = system: MYB; test: Splicing RT-qPCR assay, MYB mRNA canonical junction (CJ) and alternative junction (AJ); details: for AC50: increase in AJ mRNA
Summary of the method: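 Splice switching is measured in A673 or K562 cells after 24 h compound exposure (maximum 10 uM, 3-fold steps). Canonical and alternative junction mRNA levels are quantified by RT-qPCR relative to housekeeper and DMSO.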

[7] = system: Target C; test: Splicing RT-qPCR panel, Target C canonical junction (CJ) mRNA; details: RT-qPCR panel, canonical junction mRNA, compound concentration having 50% response in CJ decrease, read-out: Target C IC50 (decrease in CJ mRNA levels)
Description: as §5, §6, §7, §8, §9, §10, §11

[8] = Homo sapiens, 24 h, decrease in CJ mRNA, A673 or K562 cells, 24 hours treatment, RT-qPCR, read-out: HTT CJ IC50
[9] = Homo sapiens, 24 h, A673 or K562 cells, 24 hours treatment, RT-qPCR
[10] = Homo sapiens, RT-qPCR panel, canonical junction mRNA, compound concentration having 50% response in CJ decrease, read-out: HTT IC50 (decrease in CJ mRNA levels)
[11] = Homo sapiens, 24 h, decrease in CJ mRNA, A673 or K562 cells, 24 hours treatment, RT-qPCR, read-out: MYB CJ IC50
[12] = Homo sapiens, RT-qPCR panel, canonical junction mRNA, compound concentration having 50% response in CJ decrease, read-out: MYB IC50 (decrease in CJ mRNA levels)

| SMILES | IC50 ([1]; Homo sapiens, K562, 24 h) [nM] | IC50 [2, 8] [nM] | AC50 [2, 9] [nM] | IC50 [2, 10] [nM] | IC50 ([3]; Homo sapiens) [nM] | IC50 [4] [nM] | IC50 ([5]; Homo sapiens, K562, 24 h) [nM] | IC50 [6, 11] [nM] | AC50 [6, 9] [nM] | IC50 [6, 12] [nM] | IC50 ([7]; Homo sapiens) [nM] | IC50 ([1]; 24 hours) [nM] | IC50 ([2]; RT-qPCR panel, canonical junction mRNA, compound concentration having 50% response in CJ decrease, read-out: HTT IC50 (decrease in CJ mRNA levels)) [nM] | IC50 [3] [nM] | IC50 ([5]; 24 hours) [nM] | IC50 ([6]; RT-qPCR panel, canonical junction mRNA, compound concentration having 50% response in CJ decrease, read-out: MYB IC50 (decrease in CJ mRNA levels)) [nM] | IC50 [7] [nM] |
| --- | --- | --- | --- | --- | --- | --- | --- | --- | --- | --- | --- | --- | --- | --- | --- | --- | --- |
| Cc1cc(-c2ccc(-c3ccc(O[C@H]4C[C@@H]5CC(F)(F)[C@H](C4)N5)nn3)c3[nH]ncc23)ccn1 (single isomer, unassigned) [Compound 370] | 1000 to 10000 | > 10000 | > 10000 | > 10000 | 1000 to 10000 | > 10000 | 1000 to 10000 | > 10000 | > 10000 | > 10000 | 1000 to 10000 | – | – | – | – | – | – |
| FC1(F)C[C@@H]2C[C@@H](Oc3ccc(-c4ccc(-c5cn[nH]c5)c5cn[nH]c45)nn3)C[C@H]1N2 (stereo in doubt) [Compound 373, 7-[6-({6,6-difluoro-8-azabicyclo[3.2.1]octan-3-yl}oxy)pyridazin-3-yl]-4-(1H-pyrazol-4-yl)-1H-indazole] | 1000 to 10000 | 100 to 1000 | 100 to 1000 | 100 to 1000 | 100 to 1000 | 1000 to 10000 | 100 to 1000 | 1000 to 10000 | 100 to 1000 | 1000 to 10000 | 1000 to 10000 | – | – | – | – | – | – |
| CN(c1ccc(-c2ccc(-c3cn[nH]c3)c3cn[nH]c23)nn1)[C@@H]1C[C@H]2CC(F)(F)[C@@H](C1)N2 (stereo in doubt) [Compound 376, 6,6-difluoro-N-methyl-N-{6-[4-(1H-pyrazol-4-yl)-1H-indazol-7-yl]pyridazin-3-yl}-8-azabicyclo[3.2.1]octan-3-amine] | 100 to 1000 | – | 100 to 1000 | < 100 | < 100 | 100 to 1000 | 100 to 1000 | 100 to 1000 | 100 to 1000 | 100 to 1000 | 100 to 1000 | – | – | – | – | – | – |
| c1n[nH]cc1-c1ccc(-c2ccc(O[C@@H]3C[C@H]4CC[C@@H](C3)N4)nn2)c2[nH]ncc12 [Compound 142] | < 100 | 100 to 1000 | 100 to 1000 | 100 to 1000 | < 100 | < 100 | < 100 | 100 to 1000 | 100 to 1000 | 100 to 1000 | 100 to 1000 | – | – | – | – | – | – |
| CN(c1ccc(-c2ccc(-c3cn[nH]c3)c3cn[nH]c23)nn1)[C@H]1C[C@]2(C)CC[C@](C)(C1)N2 [Compound 146] | < 100 | – | < 100 | < 100 | < 100 | < 100 | < 100 | 100 to 1000 | 100 to 1000 | 100 to 1000 | < 100 | – | – | – | – | – | – |
| CN(c1ccc(-c2ccc(-n3cccn3)c3nc[nH]c23)nn1)[C@@H]1C[C@H]2CC[C@@H](C1)N2 [Compound 170] | 1000 to 10000 | 1000 to 10000 | 1000 to 10000 | 1000 to 10000 | 100 to 1000 | > 10000 | 1000 to 10000 | 1000 to 10000 | 1000 to 10000 | 1000 to 10000 | > 10000 | – | – | – | – | – | – |
| c1cnn(-c2ccc(-c3cnc(N4CCNC(C5CC5)C4)nn3)c3cn[nH]c23)c1 (stereo not shown) [Compound 555] | – | – | – | – | – | – | – | – | – | – | – | 1000 to 10000 | < 100 | 100 to 1000 | 100 to 1000 | 1000 to 10000 | 100 to 1000 |
